The conditions of series [1]: bovine, serum; cited from earlier work.
Series [2] concerns Mycobacterium tuberculosis H37Rv (ATCC 27294). Nature of the series: Microplate Alamar Blue Assay (MABA), TAACF primary screening. Format: cell-based. Conditions: lowest concentration effecting a reduction in fluorescence of 90% relative to controls. The text has this:
Compounds were submitted to the Tuberculosis Antimicrobial Acquisition and Coordinating Facility (TAACF) for testing as antimycobacterial drugs.
Compounds were subjected to in vitro evaluation for antimycobacterial activity.
See, for example, Collins et al., 1997.
Background: Alamar Blue is a resazurin reagent that responds to reducing activity.

In another series the test system is colon sub-panel. Put plainly: cells. Format: cell-based. Particulars: Homo sapiens, SW-620, read-out: mean LC50 in colon sub-panel. On the procedure: (§1) Compounds were tested for in vitro activity (48 h drug exposure) across 60 human cancer cell lines through the National Cancer Institute (NCI) Developmental Therapies Screening Program (Boyd et al., 1995).
The subject of another series is renal sub-panel. Put plainly: cells. Conditions: Homo sapiens, 60 cell, read-out: mean LC50 in renal sub-panel. Format: cell-based. As for the experimental part:
as §1

Series [3] concerns 60 human cancer cell lines. Nature of the series: cells. Format: cell-based. Conditions: Homo sapiens; for CC50: 48 h, read-out: mean LC50. As for the experimental part: as §1
For series [4], the system named is MCF-7 (ER+) breast carcinoma. Put plainly: Growth inhibitory assay (MTT, 72 hr). Format: cell-based. Particulars: Homo sapiens, MCF7, 72 hr exposure. As for the experimental part: (§2) Compounds were prepared as 10 mM top stocks, dissolved in DMSO, and stored at 4° C., protected from light, for a maximum period of 4 weeks. Human derived cell lines (HCT 116, HT29 colon carcinoma; MCF-7 (ER+), MDA 468 (ER−) breast carcinoma; A549 lung adenocarcinoma) were routinely cultivated at 37° C. in an atmosphere of 5% CO2 in RPMI 1640 medium supplemented with 2 mM L-glutamine and 10% fetal calf serum and subcultured twice weekly to maintain continuous logarithmic growth. Cells were seeded into 96-well microtiter plates at a density of 5×10^3 per well and allowed 24 hr to adhere before drugs were introduced (final concentration 0.1 nM–100 μM, n=8). Serial drug dilutions were prepared in medium immediately prior to each assay. At the time of drug addition and following 72 hr exposure, MTT was added to each well (final concentration 400 µg/mL). Incubation at 37° C. for 4 hr allowed reduction of MTT by mitochondrial dehydrogenase to an insoluble formazan product. Well contents were aspirated and formazan solubilized by addition of DMSO:glycine buffer (pH 10.5) (4:1). Absorbance was measured using an Anthos Labtec systems plate reader at 550 nm, and used as a measure of cell viability; thus cell growth or drug toxicity was determined.

For the next series, the system named is HT29 colon carcinoma. Nature of the series: Growth inhibitory assay (MTT, 72 hr). Format: cell-based. Particulars: Homo sapiens, HT-29, 72 hr exposure. As for the experimental part: as §2
For series [5], the system named is MDA 468 (ER−) breast carcinoma. Put plainly: Growth inhibitory assay (MTT, 72 hr). Format: cell-based. Particulars: Homo sapiens, 72 hr exposure. As for the experimental part:
as §2

A further series has as its system HCT 116 colon carcinoma. Nature of the series: Growth inhibitory assay (MTT, 72 hr). Format: cell-based. Conditions: Homo sapiens, 72 hr exposure. On the procedure: as §2
Another series concerns A549 lung adenocarcinoma. Nature of the series: Growth inhibitory assay (MTT, 72 hr). Format: cell-based. Particulars: Homo sapiens, 72 hr exposure. On the procedure: as §2
The target of a further series is thioredoxin (Homo sapiens, UniProt P10599). Conditions: irreversible inhibitor of thioredoxin; cited from earlier work.
Setting [6] is: mean over NCI 60 cell panel, 48 h drug exposure.

The source of these data is patent US7144893B2, “4-aryl quinols and analogs thereof as therapeutic agents” (Cancer Research Technology Limited, priority 2001, dated 2006).

Converted amounts (≈) assume the structure as drawn.

Chain of thioredoxin (P10599 whole entry): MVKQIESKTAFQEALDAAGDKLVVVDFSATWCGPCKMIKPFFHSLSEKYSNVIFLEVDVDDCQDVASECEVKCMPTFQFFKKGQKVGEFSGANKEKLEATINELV

For the compound `O=CN/C=C/c1cc(O)ccc1O` [erbstatin], the half-life in series [1] is less than 30 min.
The compound `O=C1C=CC(OC(=O)c2ccc([N+](=O)[O-])cc2)(c2nc3ccccc3s2)C=C1` [Q34, 4-(para-nitrobenzoyloxy)-4-(benzothiazol-2-yl)-2,5-cyclohexadien-1-one] displayed a melting point of 138 °C.
As to `CCOC1(c2nc3ccccc3s2)C=CC(=O)C=C1` [Q18, 4-(Benzothiazol-2-yl)-4-ethoxy-2,5-cyclohexadien-1-one], the melting point came to 59 °C.
In series [2], `O=C1C=CC(O)(c2nc3ccccc3o2)C=C1` [Q04, 4-(Benzoxazol-2-yl)-4-hydroxy-2,5-cyclohexadien-1-one] came in with an MIC of 1.56 µg/mL (≈ 6.87 µM). Also, in the series on colon sub-panel, the LC50 is 1130 nM. Also, the mean LC50 with renal sub-panel came to 1640 nM. For the same compound, in series [3] (60 cell), the CC50 came out at 7080 nM. In [3] (setting [6]), this compound registered a 50% growth inhibitory concentration (GI50) of 460 nM. In addition, the half-maximal inhibitory concentration (IC50) in series [4] was found to be 390 nM; in the series with HT29 colon carcinoma it was 290 nM; in [5], 350 nM; in the series on HCT 116 colon carcinoma it was 180 nM; in the series with A549 lung adenocarcinoma, 2330 nM.
In turn, `O=C1C=CC(O)(c2cc3ccccc3[nH]2)C=C1` [Q03, 4-(Indol-2-yl)-4-hydroxy-2,5-cyclohexadien-1-one] had a melting point of 133 °C. Moreover, it took 3.13 µg/mL (≈ 13.9 µM) to inhibit growth in [2] (MIC). Besides, the GI50 in series [3] (setting [6]) is 1410 nM. The compound further gave an IC50 with HT29 colon carcinoma of 1760 nM. The compound also came in with an IC50 in the series with HCT 116 colon carcinoma of 2840 nM. The same compound displayed an IC50 in the series on A549 lung adenocarcinoma of 6130 nM.
Take `COc1ccc(C(=O)OC2(c3nc4ccccc4s3)C=CC(=O)C=C2)cc1` [Q35, 4-(para-methoxybenzoyloxy)-4-(benzothiazol-2-yl)-2,5-cyclohexadien-1-one]: the melting point was found to be 137 °C.
`CN(C)CC1CCC(CN(C)C)C1=O` (centres unmarked) [NSC-131233, 2,5-bis[(dimethylamino)methyl]cyclopentanone]: the Ki at thioredoxin was 1000 nM.
In the case of `O=C1C=CC(O)(c2cc3ccccc3s2)C=C1` [Q02, 4-(Benzothiophen-2-yl)-4-hydroxy-2,5-cyclohexadien-1-one], in the series on colon sub-panel, the LC50 worked out at 1690 nM. Further, in the series on renal sub-panel, the mean LC50 was determined as 1400 nM. In [3] (60 cell), the CC50 worked out at 5750 nM. Also, the GI50 was determined as 550 nM in [3] (60 cell, Table 5) and 250 nM in [3] (setting [6]). Also, the IC50 in the series with HT29 colon carcinoma worked out at 552 nM; with HCT 116 colon carcinoma it was 169 nM; in the series with A549 lung adenocarcinoma, 2430 nM.
With `O=C1C=CC(O)(c2cc3ccccc3o2)C=C1` [Q01, 4-(Benzofuran-2-yl)-4-hydroxy-2,5-cyclohexadien-1-one], the MIC in [2] amounted to 1.56 µg/mL (≈ 6.9 µM). The LC50 in the series on colon sub-panel was found to be 3660 nM. Besides, the mean LC50 in the series on renal sub-panel came out at 2400 nM. Also, in [3] (60 cell), the CC50 was found to be 7240 nM. In [3] (setting [6]), this compound had a GI50 of 520 nM. Also, the IC50 with HT29 colon carcinoma was 419 nM; in the series on HCT 116 colon carcinoma, 159 nM; in the series with A549 lung adenocarcinoma, 2300 nM.
For the compound `O=C1C=CC(O)(c2nc3ccccc3[nH]2)C=C1` [Q07, 4-(Benzimidazol-2-yl)-4-hydroxy-2,5-cyclohexadien-1-one], the melting point came to 234 °C. In [2], this compound registered an MIC of 3.13 µg/mL (≈ 13.8 µM). In series [3] (setting [6]), the GI50 was 1100 nM. Besides, in series [4], the half-inhibitory concentration (IC50) is 509 nM. In the series on HT29 colon carcinoma, this compound registered an IC50 of 504 nM. This compound also yielded an IC50 in series [5] of 353 nM. The compound also returned a concentration for half-maximal inhibition (IC50) in the series with HCT 116 colon carcinoma of 210 nM.

As usually defined, the half-life is how long it takes for the measured level to halve. In general, melting point refers to the temperature, or range, at which the solid turns liquid. For orientation: MIC means the lowest concentration found to suppress growth. A high value points to weaker potency. In general, LC50 refers to the concentration lethal to half of the exposed cells or organisms. What is called GI50 is the concentration giving 50% growth inhibition. The term IC50 denotes the concentration that inhibits the measured activity by half. A higher IC50 goes with a need for much substance.
